This is an account of results in ChEMBL document CHEMBL5032530, “Discovery of Benzocyclic Sulfone Derivatives as Potent CXCR2 Antagonists for Cancer Immunotherapy” (J Med Chem, 2021).

Data set [1] has as its target T1, C-X-C chemokine receptor type 2 (Homo sapiens, UniProt P25025).
T1 sequence (P25025 whole entry): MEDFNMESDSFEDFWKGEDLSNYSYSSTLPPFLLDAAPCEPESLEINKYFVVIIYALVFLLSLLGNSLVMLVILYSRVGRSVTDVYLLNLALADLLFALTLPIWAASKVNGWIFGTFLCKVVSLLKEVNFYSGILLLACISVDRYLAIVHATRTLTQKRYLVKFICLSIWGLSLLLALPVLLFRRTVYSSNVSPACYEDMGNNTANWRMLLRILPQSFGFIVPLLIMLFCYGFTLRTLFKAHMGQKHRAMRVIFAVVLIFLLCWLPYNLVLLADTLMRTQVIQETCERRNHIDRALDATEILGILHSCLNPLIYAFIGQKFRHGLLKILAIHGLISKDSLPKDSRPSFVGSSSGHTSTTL
Description: Antagonist activity at human CXCR2 expressed in HEK293 cells assessed as inhibition of CXCL8-induced beta-arrestin recruitment preincubated for 30 mins followed by addition of agonist incubated for 90 mins by beta arrestin assay. The class given is functional, cell-based. (Arrestin recruitment assays detect the binding of arrestin to an activated receptor.)

Data set [2] is described as follows: Oral bioavailability in ICR mouse at 30 mg/kg measured upto 48 hrs. Conditions: in vivo. The class given is ADME, organism-based.
A short description of data set [3]: Clearance in ICR mouse at 3 mg/kg, iv measured upto 48 hrs. The class given is ADME, organism-based. The following applies: in vivo.
A short description of data set [4]: Half life in ICR mouse at 30 mg/kg, po measured upto 48 hrs. The class given is ADME, organism-based. The following applies: in vivo, 30 mg/kg, 48 h.
A short description of data set [5]: Apparent volume of distribution in ICR mouse at 30 mg/kg, po measured upto 48 hrs. The class given is ADME, organism-based. Conditions: in vivo.
Data set [6] is described as follows: AUC (0 to infinity) in ICR mouse at 3 mg/kg, iv measured upto 48 hrs. Conditions: in vivo. Further details: route intravenous, dose 3 mg/kg, time <=48. The class given is ADME, organism-based.
A short description of data set [7]: Cmax in ICR mouse at 30 mg/kg, po measured upto 48 hrs. The class given is ADME, organism-based. On the set-up: route oral, dose 30 mg/kg, time <=48. Conditions: in vivo.
Data set [8] can be described thus: Apparent volume of distribution in ICR mouse at 3 mg/kg, iv measured upto 48 hrs. The class given is ADME, organism-based. The following applies: in vivo, read-out: Vz.
For another data set, the system named is Neutrophil. Description: In vivo antagonist activity at CXCR2 in carrageenan-induced C57BL/6 mouse air pouch inflammation model assessed as reduction in neutrophil infiltration into air pouch at 10 mg/kg, po bid administered after 3 days of carrageenan treatment for 3 days. The class given is functional, organism-based. Conditions: time 3.0 day.
Data set [9] can be described thus: Half life in ICR mouse at 3 mg/kg, iv measured upto 48 hrs. Conditions: in vivo. The class given is ADME, organism-based.
Data set [10] is described as follows: Clearance in ICR mouse at 30 mg/kg, po measured upto 48 hrs. The class given is ADME, organism-based. Conditions: in vivo, 30 mg/kg, 48 h.
The nature of data set [11]: AUC (0 to t) in ICR mouse at 3 mg/kg, iv measured upto 48 hrs. Conditions: in vivo. The class given is ADME, organism-based. Further details: route intravenous, dose 3 mg/kg, time <=48.
A short description of data set [12]: Tmax in ICR mouse at 30 mg/kg, po measured upto 48 hrs. The class given is ADME, organism-based. Conditions: in vivo.
Data set [13] in a line: AUC (0 to t) in ICR mouse at 30 mg/kg, po measured upto 48 hrs. The class given is ADME, organism-based. On the set-up: route oral, dose 30 mg/kg, time <=48. The following applies: in vivo.
Data set [14] in a line: Tmax in ICR mouse at 3 mg/kg, iv measured upto 48 hrs. The following applies: in vivo. The class given is ADME, organism-based.
Data set [15] can be described thus: AUC (0 to infinity) in ICR mouse at 30 mg/kg, po measured upto 48 hrs. The class given is ADME, organism-based. On the set-up: route oral, dose 30 mg/kg, time <=48. Conditions: in vivo, 48 h.
A short description of data set [16]: Cmax in ICR mouse at 3 mg/kg, iv measured upto 48 hrs. The class given is ADME, organism-based. Further details: route intravenous, dose 3 mg/kg, time <=48. The following applies: in vivo.

Usually IC50 stands for the concentration needed to halve the response being measured. For orientation: bioavailability means dose-corrected exposure relative to a reference, in per cent. By clearance is commonly meant the volume of plasma or blood freed of the substance per unit of time. Low readings indicate a low capacity for elimination, high ones a high capacity for elimination. As a reminder, the AUC(0-inf) is the area under the concentration-time curve extrapolated to infinity. A lower AUC(0-inf) goes with less exposure. One may read the Cmax as the highest concentration seen after dosing. By half-life is commonly meant the time needed for the level to fall by half in the phase considered. Read a high half-life as slow decline. By AUC(0-t) is commonly meant the area under the concentration-time curve up to a stated or last time point. High values mean high exposure, low ones low exposure. The Tmax is the time at which the peak concentration occurs. What is called AUC is concentration integrated over time.

Calls of active or inactive are those of the source. A value given as a limit tells only on which side of the number the result lay.

Take `O=C(Nc1ccccc1Cl)Nc1ccc2c(c1O)S(=O)(=O)CCC2`: in data set [1], the IC50 is 210 nM. On to `O=C(Nc1ccccc1Cl)Nc1ccc2c(c1O)S(=O)(=O)CC=C2`, for which the IC50 in data set [1] is 66 nM. On to `Cc1c(F)cccc1NC(=O)Nc1ccc2c(c1O)S(=O)(=O)CCC2=O`, for which the IC50 in data set [1] came out at 420 nM. Same read-out and setting: with `O=C(Nc1ccccc1C(F)(F)F)Nc1ccc2c(c1O)S(=O)(=O)CC=C2` the figure was 1600 nM. As to `O=c1c(Nc2ccc3c(c2O)S(=O)(=O)CC=C3)c(Nc2cccc(F)c2Cl)c1=O`, the IC50 in [1] was determined as 700 nM. On the same count and under the same terms, with `O=C(Nc1ccc(Br)cc1)Nc1ccc2c(c1O)S(=O)(=O)CCC2` the figure was over 10000 nM; with `O=C(Nc1ccc2c(c1O)S(=O)(=O)CCC2)Nc1cccc(Cl)c1Cl`, 210 nM; with `O=c1c(Nc2ccc3c(c2O)S(=O)(=O)CCC3)c(Nc2cccc(F)c2Cl)c1=O`, 3450 nM. With `Cc1ccc(NC(=O)Nc2ccc3c(c2O)S(=O)(=O)CCC3)cc1`, the IC50 in [1] came out at 1320 nM.

With `O=C(Nc1ccc(Br)cc1)Nc1ccc2c(c1O)S(=O)(=O)CC=C2`, the IC50 in [1] was found to be 1480 nM. On to `O=C(Nc1ccc(Cl)cc1Cl)Nc1ccc2c(c1O)S(=O)(=O)CCC2`, for which the IC50 in [1] was over 10000 nM. In the case of `O=C(Nc1ccc(Cl)cc1Cl)Nc1ccc2c(c1O)S(=O)(=O)CC=C2`, the half-inhibitory concentration (IC50) in [1] was 5920 nM. For `Cc1c(Cl)cccc1NC(=O)Nc1ccc2c(c1O)S(=O)(=O)CC=C2`, the IC50 in data set [1] was 1640 nM. Same read-out and setting: in the case of `O=C(Nc1ccccc1Br)Nc1ccc2c(c1O)S(=O)(=O)CCC2` it was 140 nM; in that of `O=C(Nc1ccccc1Br)Nc1ccc2c(c1O)S(=O)(=O)CC=C2`, 49 nM.

For `Cc1c(F)cccc1Nc1c(Nc2ccc3c(c2O)S(=O)(=O)CC=C3)c(=O)c1=O`, the IC50 in data set [1] was determined as 370 nM. Same read-out and setting: with `Cc1c(Cl)cccc1NC(=O)Nc1ccc2c(c1O)S(=O)(=O)CCC2` the figure was 2430 nM. Same read-out and setting: in the case of `O=C(Nc1ccc2c(c1O)S(=O)(=O)CC=C2)Nc1cccc(Cl)c1Cl` it was 130 nM; in that of `O=c1c(Nc2ccc3c(c2O)S(=O)(=O)CC=C3)c(Nc2cccc(Cl)c2Cl)c1=O`, 2500 nM; in that of `Cc1c(F)cccc1Nc1c(Nc2ccc3c(c2O)S(=O)(=O)CCC3)c(=O)c1=O`, 1360 nM.

Regarding `O=C(Nc1ccc2c(c1O)S(=O)(=O)CC=C2)Nc1cccc(F)c1Cl`, the IC50 in data set [1] is 19000 nM. Still for that read-out and setting: with `O=c1c(Nc2ccccc2Cl)c(Nc2ccc3c(c2O)S(=O)(=O)CCC3)c1=O` the figure was 1050 nM.

`O=c1c(Nc2ccccc2Br)c(Nc2ccc3c(c2O)S(=O)(=O)CCC3)c1=O`: the IC50 in data set [1] is 150 nM. With `O=C(Nc1ccccc1C(F)(F)F)Nc1ccc2c(c1O)S(=O)(=O)CCC2`, the IC50 in data set [1] was determined as 4510 nM. Still for that read-out and setting: with `O=c1c(Nc2ccc3c(c2O)S(=O)(=O)CCC3)c(Nc2cccc(Cl)c2Cl)c1=O` the figure was 9990 nM; with `Cc1ccc(NC(=O)Nc2ccc3c(c2O)S(=O)(=O)CC=C3)cc1`, 190 nM. Same read-out and setting: in the case of `O=c1c(Nc2ccccc2Br)c(Nc2ccc3c(c2O)S(=O)(=O)CC=C3)c1=O` it was 78 nM. Still for that read-out and setting: with `O=C(Nc1ccccc1F)Nc1ccc2c(c1O)S(=O)(=O)CC=C2` the figure was 320 nM.

In the case of `O=C(Nc1ccc2c(c1O)S(=O)(=O)CCC2)Nc1cccc(F)c1Cl`, the IC50 in data set [1] amounted to 43 nM. Turning to `O=C(Nc1ccccc1F)Nc1ccc2c(c1O)S(=O)(=O)CCC2`, in [1], the IC50 is 1020 nM.

Consider `O=C(Nc1ccc2c(c1O)S(=O)(=O)CCC2=O)Nc1cccc(Cl)c1Cl`, for which the concentration for half-maximal inhibition (IC50) in data set [1] was 400 nM. For `O=c1c(Nc2ccccc2Cl)c(Nc2ccc3c(c2O)S(=O)(=O)CC=C3)c1=O`, the IC50 in data set [1] turned out to be 200 nM. With `NS(=O)(=O)c1c(Cl)ccc(NC(=O)Nc2cccc(Cl)c2Cl)c1O`, in [2], the bioavailability turned out to be 35%. In data set [3], this compound had a clearance of 16.3 mL/min/kg. In data set [4], this compound displayed a t1/2 of 215 min. Also, in data set [5], the Vz is 14.09 L/kg. In data set [6], the AUC(0-inf) turned out to be 3160 ng·h/mL. In addition, the Cmax was 3810 ng/mL in data set [7] and 8350 ng/mL in data set [16]. For the same compound, in data set [8], the Vd came to 5.07 L/kg. The outcome in the data set on Neutrophil was Active. In [9], the half-life is 216 min. The CL in data set [10] was 453.5 mL/min/kg. Moreover, the AUC(0-t) at 48 h in data set [11] worked out at 3160 ng·h/mL; in data set [13], 11100 ng·h/mL. The figures for the Tmax in [12] and in data set [14] were 18 min and 3.6 min, respectively. Also, the AUC in [15] stood at 11072.08 ng·h/mL. The IC50 in [1] was found to be 13 nM.
